Source: US20250154525A1, “PLANT VIRUS MOVEMENT PROTEINS AND METHODS OF USING SAME” (Molecular Transfer, Inc., priority 2016, published 2025)

Tests used:
some examined cell types = assay: Summary of Example 1: transfection expression and % cells transfected over the no peptide control; format: cell-based; conditions: on some examined cell types
In short: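 Cells at 70% confluence received DNA complexes of EF1Alpha eGFP plasmid with DOTMA/DOPE (1:1) plus oligo-Arg- or oligo-Lys-tagged peptide ligands, formed 10 min at room temperature. After 42 h at 37 °C, 5% CO2, GFP read by plate reader and % transfected cells judged microscopically, relative to lipid without peptide.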

C2C12 Cells = assay: GFP plasmid transfection with DOTMA/DOPE plus surface ligand peptide, fluorescent plate reader (Example 1); format: cell-based, mouse; conditions: DOTMA/DOPE + peptide linked to R12 or K16; EF1Alpha eGFP plasmid; 42 hours
In short: (§1)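 DOTMA/DOPE (1:1 molar) plus peptide bearing a poly-Arg or poly-Lys tag was complexed 10 min with EF1alpha eGFP plasmid in OptiMEM, then added to 70%-confluent cells (0.01 mL fibroblasts; 0.02 mL C2C12, Jurkat). After 42 h at 37 °C, GFP was read by plate reader and compared with DOTMA without ligand.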

HeLa Cells [1] = assay: as above; format: cell-based; conditions: DOTMA/DOPE + peptide linked to R12 or K16; EF1Alpha eGFP plasmid; 42 hours
NL-1 iPS Cells = assay: as above; format: cell-based; conditions: DOTMA/DOPE + peptide linked to R12 or K16; EF1Alpha eGFP plasmid; 42 hours
Jurkat Cells = assay: as above; format: cell-based; conditions: DOTMA/DOPE + peptide linked to R12 or K16; EF1Alpha eGFP plasmid; 42 hours
In short: as §1

HuVec Cells [2] = assay: as above; format: cell-based; conditions: DOTMA/DOPE + peptide linked to R12 or K16; EF1Alpha eGFP plasmid; 42 hours
In short: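 HuVEC cells in 96 well plates at 70% confluence were transfected with EF1Alpha eGFP plasmid using a 1:1 molar DOTMA/DOPE lipid mixed with a surface ligand peptide carrying a covalently attached nucleic acid binding moiety. Complexes formed for 10 minutes, 0.01 mL went to each well, cells were incubated 42 hours at 37° C., and fluorescence was read on a plate reader.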

Human Fibroblast Cells = assay: as above; format: cell-based; conditions: DOTMA/DOPE + peptide linked to R12 or K16; EF1Alpha eGFP plasmid; 42 hours
In short: as §1

HeLa Cells [3] = assay: GFP transfection with DOTMA/SEQ ID NO: 72 (fusogenic peptide)/peptide compared with Lipofectamine 2000; format: cell-based
In short: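 DOTMA/DOPE (1:1 molar) lipid mixed with polyarginine- or polylysine-tagged cell-surface-ligand peptide, complexed 10 min with EF1alpha eGFP plasmid at 10 μg/mL in OptiMEM, fusogenic peptide at 0.1 mg/mL final; HeLa cells ~70% confluent given 0.01 mL complex. GFP read by fluorescence plate reader and microscopy (% cells transfected) after 42 h at 37° C; Lipofectamine 2000 as comparator.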

HeLa Cells [4] = assay: GFP plasmid transfection with DOTMA/DOPE plus plant virus movement protein derived peptides (Example 2); format: cell-based; conditions: 1-6 μL of transfection reagents
Method: (§2) Cells were plated to so that on the day of transfection the cells were 70% confluent in 96 well tissue culture plates. A DOMTA/DOPE Lipid solution (1:1 molar ratio) at 2 mg/mL in water were mixed with an equal volume of plant virus movement protein derived peptides that had the nucleic acid binding moiety RRRRRRRRRRRR (SEQ ID NO:109) or KKKKKKKKKKKKKKKK (SEQ ID NO: 102) covalently linked to the N-terminus, or C-terminus of each peptide during peptide synthesis. Peptides were at 2 mg/mL in water. The DOTMA/DOPE and the plant virus movement peptide solution the was diluted 1 to 1 (v/v) in water. DOMTA/DOPE/PEPTIDE solutions were added to 0.1 mL of a plasmid DNA solution (EF1Alpha eGFP plasmid) at 10 μg/mL in OptiMEM.
(§3) All solutions were at room temperature. A volume of 0.2 mL of a 10 μg/mL solution of DNA was aliquoted into each well of a non-tissue cultured treated plate. 1-6 μL of transfection reagents were added to DNA solutions respectively. The transfection reagent and DNA solution was mixed by pipetting up and down twice. Transfection complexes were formed for 10 minutes. After 10 minutes, 0.01 or 0.02 mL of the transfection complex was added to cells. HuVEC, HeLa, human adult keratinocytes, human primary adult fibroblast, and A549 cells all respectively received 0.01 mL of the transfection complex. Human skeletal muscle cells, mouse C2C12 cells, and Jurkat, cells received 0.02 mL of the transfection complex. Cells were incubated for 42 hours at 37° C. at 5% CO2. Plates were read on a fluorescent plate reader. Cells were also examined visually under a microscope to assess the extent of transfection (in terms of the percent of cells transfected) with a fluorescent microscope. Other modes of analysis, for example quantification with B-galactosidase or luciferase reports plasmids can also be used.

[5] = tested on: Human Primary Fibroblast Cells; assay: as above; format: cell-based; conditions: 42 hours
Method: as §2, §3

HuVec Cells [6] = assay: as above; format: cell-based; conditions: 42 hours
Method: as §2, §3

[7] = value column 1 of 6, head not given, 1 µL transfection reagent
[8] = value column 3 of 6, head not given, 3 µL transfection reagent
[9] = value column 4 of 6, head not given, 4 µL transfection reagent

| Compound | Relative Fluorescence of Transfection of C2C12 Cells (RF) (C2C12 Cells) | Relative Fluorescence of Transfection of HeLa Cells (RF) (HeLa Cells [1]) | Relative Fluorescence of Transfection of NL-1 iPS Cells (RF) (NL-1 iPS Cells) | Relative Fluorescence of Transfection of Jurkat Cells (RF) (Jurkat Cells) | Relative Fluorescence of Transfection of HuVec Cells (RF) (HuVec Cells [2]) | Relative Fluorescence of Transfection of Human Fibroblast Cells (RF) (Human Fibroblast Cells) | Relative Fluorescence of Transfection of Hela Cells (HeLa Cells [4]; 2 µL transfection reagent) | Relative Fluorescence of Transfection of Hela Cells (HeLa Cells [4]; 5 µL transfection reagent) | Relative Fluorescence of Transfection of Hela Cells (HeLa Cells [4]; [7]) | Relative Fluorescence of Transfection of Hela Cells (HeLa Cells [4]; [8]) | Relative Fluorescence of Transfection of Hela Cells (HeLa Cells [4]; [9]) | Relative Fluorescence of Transfection of Human Primary Fibroblast Cells ([5]; Transfection Agent 1 μl) [Rf] | Relative Fluorescence of Transfection of Human Primary Fibroblast Cells ([5]; Transfection Agent 1.5 μl) [Rf] | Relative Fluorescence of Transfection of Human Primary Fibroblast Cells ([5]; Transfection Agent 2 μl) [Rf] | Relative Fluorescence of Transfection of Human Primary Fibroblast Cells ([5]; Transfection Agent 3 μl) [Rf] | Relative Fluorescence of Transfection of Human Primary Fibroblast Cells ([5]; Transfection Agent 4 μl) [Rf] | Relative Fluorescence of Transfection of Human Primary Fibroblast Cells ([5]; Transfection Agent 6 μl) [Rf] | Relative Fluorescence of Transfection of HuVEC Cells (HuVec Cells [6]; Transfection Agent 1 μl) [Rf] | Relative Fluorescence of Transfection of HuVEC Cells (HuVec Cells [6]; Transfection Agent 1.5 μl) [Rf] | Relative Fluorescence of Transfection of HuVEC Cells (HuVec Cells [6]; Transfection Agent 2 μl) | further results |
| --- | --- | --- | --- | --- | --- | --- | --- | --- | --- | --- | --- | --- | --- | --- | --- | --- | --- | --- | --- | --- | --- |
| 503 (TAGSCLRKFSTMRRRRRRRRRRRR) [compound 503] | 3973 | 25368 | 19014 | 9411 | 12123 | 13085 |  |  |  |  |  |  |  |  |  |  |  |  |  |  | transfection expression and % cells transfected over the no peptide control (some examined cell types): increased transfection expression and the % cells transfected; Relative Fluorescence DOTMA/SEQ ID NO: 72/Peptide, HeLa Cells (RF) (HeLa Cells [3]; 0.1 μL of DOTMA/SEQ ID NO: 72/Peptide in well of a 96 well plate): 12827; Relative Fluorescence DOTMA/SEQ ID NO: 72/Peptide, HeLa Cells (RF) (HeLa Cells [3]; 0.2 μL of DOTMA/SEQ ID NO: 72/Peptide in well of a 96 well plate): 20006; Relative Fluorescence DOTMA/SEQ ID NO: 72/Peptide, HeLa Cells (RF) (HeLa Cells [3]; 0.3 μL of DOTMA/SEQ ID NO: 72/Peptide in well of a 96 well plate): 17101; Relative Fluorescence DOTMA/SEQ ID NO: 72/Peptide, HeLa Cells (RF) (HeLa Cells [3]; 0.4 μL of DOTMA/SEQ ID NO: 72/Peptide in well of a 96 well plate): 16206 |
| 540 (RRRRRRRRRRRRVDYGKWERKPIRCASMSR) [compound 540] |  |  |  |  |  |  | 35653 | 13917 | 6422 | 27970 | 18620 | 29368 | 40610 | 35505 | 33853 | 33063 | 30219 | 24771 | 34062 | 44744 Rf | Relative Fluorescence of Transfection of HuVEC Cells (HuVec Cells [6]; Transfection Agent 3 μl): 44087 Rf; Relative Fluorescence of Transfection of HuVEC Cells (HuVec Cells [6]; Transfection Agent 4 μl): 45137 Rf; Relative Fluorescence of Transfection of HuVEC Cells (HuVec Cells [6]; Transfection Agent 6 μl): 30023 Rf |
| 541 (RRRRRRRRRRRRGKWERKPIRCAS) [compound 541] |  |  |  |  |  |  | 36476 | 20473 | 17145 | 37105 | 23644 | 35030 | 44894 | 42097 | 31837 | 29537 | 28921 | 27405 | 46446 | OVER | Relative Fluorescence of Transfection of HuVEC Cells (HuVec Cells [6]; Transfection Agent 3 μl): 40401 Rf; Relative Fluorescence of Transfection of HuVEC Cells (HuVec Cells [6]; Transfection Agent 4 μl): 31568 Rf; Relative Fluorescence of Transfection of HuVEC Cells (HuVec Cells [6]; Transfection Agent 6 μl): 28125 Rf |
| CCCCCCCC/C=C\CCCCCCCCOCC(C[N+](C)(C)C)OCCCCCCCC/C=C\CCCCCCCC.[Cl-] (centres unmarked) [DOTMA, N-[1-(2,3-dioleyloxy)propyl]-N,N,N-trimethylammonium chloride, reference compound] | 1289 | 7551 | 8965 | 9084 | 12230 | 3397 | 4782 | 9694 | 4424 | 5377 | 6992 |  |  |  |  |  |  |  |  |  |  |
